Source: patent US20250243427A1, “PRECURSORS OF PHENOLIC FRAGRANT COMPOUNDS” (GIVAUDAN SA, priority 2021, published 2025)
“Also recorded” adds a separate entry of the source.

How the values were obtained:
[1] = Odor description on paper blotter; settings: 1% solution in EtOH on paper blotter, 24 h
[2] = Washtest and sensory evaluation of fabric washed with liquid detergent; settings: for odor intensity, 1 day / odor intensity, 4 days / odour intensity, 1 day / odour intensity, 4 days: scale 0 to 5; for odor intensity, wet / odour intensity, wet: wet fabric, scale 0 (odorless) to 5 (extremely strong); for odour intensity, wet: Table 2 (position of double bond); for odour intensity, 1 day / odour intensity, 4 days: Table 2
Method: The wet and line-dried fabric (1 and 4 days) was assessed by a panel of 4-6 experts with regard to odor intensity and quality. The odor intensity was recorded on an intensity scale of 0 (odorless) to 5 (extremely strong).
The odour intensity was recorded on an intensity scale of 0 (odorless) to 5 (extremely strong).
Liquid detergent samples were prepared and used in washtests and subsequent sensory evaluation of the washed and dried fabric as described in Example 45a and c. The odor intensity was recorded on an intensity scale of 0 (odorless) to 5 (extremely strong).

[3] = Biodegradability, manometric respirometry test (OECD 301F); set-up: key to result (biodegradable class; cell wraps to 'biodegradable'): A compound is readily biodegradable, if the pass level is reached within 10 days within the 28-day period of the test; If the pass level is obtained after 28-day period of the test, the compound can be classified as inherently biodegradable; settings: for result (biodegradable class; cell wraps to 'biodegradable'): 28-day test, 10-day window; for Biodegradation in %: pass level 60% oxygen consumption of theory
Text: The results of the biodegradability assessment by the manometric respirometry test (OECD guideline for the testing of materials No. 301F, Paris 1992) are summarized in Table 5.
A compound can be classified biodegradable, if it reaches the pass level of 60% oxygen consumption of theory required for complete mineralization.
A compound is readily biodegradable, if the pass level is reached within 10 days within the 28-day period of the test. The 10-day window begins when the degree of biodegradation has reached 10%. If the pass level is obtained after 28-day period of the test, the compound can be classified as inherently biodegradable.

[4] = Malodour reduction on washed fabric, trained sensory panel; settings: 4 day dry cloth washed with unit dose containing 2% of a 10% solution in trietylcitrate, + Male Sweat Malodour, 0-100 line scale; for Perceived Fragrance Intensity: control set at 0; for Perceived Malodour Intensity: malodour control set at 40
Method: Fabrics (18 cm×14 cm cotton jersey) were stripped before use. They were then washed in European washing machines (40° C.—1,000 spin/min) with one unit dose (65 g) used per wash load. The unit dose contained 2% of a 10% solution of the compound of formula 1 in trietylcitrate. • a) Compound of example 33 • b) Compound of example 34 • c) Compound of example 1
The total wash load was 1.6 kg made up of test cloths and hand towels (100% cotton) as ballast. The cloth was line dried and left overnight in a perfume free room at 25° C., left to hang for 3 days and then wrapped in foil the day prior to the test (day 3). 30 minutes before the assessment, 50 μL of the pure Male Sweat malodour was placed on top of a cotton pad and introduced into a 500 ml powder jar. One cotton jersey square was then placed over the top of the powder jar and secured with a rubber band. Every sample tested was coded with a random code number.
The malodour and fragrance perceived intensities were assessed by the trained sensory panel using a 0-100 line scale. All malodour and fragrance perceived intensities were scaled against the malodour control sample. The malodour perceived intensity was set at 40 for Male Sweat malodour and the fragrance perceived intensity was set at 0.
The order of samples assessed by the panelists was pre-determined using a balanced randomisation. The samples were assessed in a sequential monadic way. The products were assessed twice by 14 panelists, thus giving 28 assessments per sample.
Before analysis, the data was checked for outliers and extreme violations to normality.
Reliability of the data was checked and data of panelists with poor discrimination, consensus or repeatability may have been removed from the analysis. The data was analysed using analysis of variance (ANOVA). A 5% significance level (95% confidence level) was used. Separate ANOVAs were carried out for malodour and fragrance intensity. The ANOVA have product, panelist, and replicate as factors. Pairwise comparisons of the products were done using the Benjamini-Hochberg correction for multiple testing. The estimated product means are reported.

[5] = Color stability in liquid detergent, visual inspection; type: physicochemical; settings: 0.2% by weight in unperfumed liquid detergent base, stirred 24 h at room temperature; compared to unperfumed base sample (C)
Text: The above prepared samples were visually inspected in comparison to an unperfumed base sample (sample C).

[6] = Application in shampoo base, odour on hair swatch; settings: 0.2% by weight in clear hair shampoo base; dried hair swatch 1 and 3 days; panel of 7 experts
Method: A hair shampoo sample (20 g) was prepared by adding 0.2% by weight of 3-ethoxy-4-(hex-3-en-1-yloxy)benzaldehyde (compound of example 3) to unperfumed clear hair shampoo base and mixing on a bottle roller for 24 h at room temperature. An odour-neutral human hair swatch was wetted with warm tap water and lathered delicately with 2 mL of the above hair shampoo sample for 30 sec by hand wearing gloves. The lathered hair swatch was left in a plastic bowl for 2 min, then rinsed under running tap water for 20 sec. After removing excess water by squeezing the hair swatch between two fingers, it was left to dry in open air. The odour of the wet and dried hair swatch (1 and 3 days) was assessed by a panel of 7 experts.

[7] = Table 3, liquid detergent washtest
[8] = Table 3, liquid detergent washtest, dry fabric 1 day
[9] = Table 3, liquid detergent washtest, dry fabric 4 days
[10] = liquid detergent washtest, dry fabric 1 day
[11] = liquid detergent washtest, dry fabric 4 days

| result (biodegradable class; cell wraps to 'biodegradable') [3] | Biodegradation in % [3] [%] | Structure (SMILES) | Odor description [1] | odor on dry fabric [2, 7] | odor intensity, 1 day [2, 8] | odor intensity, 4 days [2, 9] | odor intensity, wet [2, 7] | also measured |
| --- | --- | --- | --- | --- | --- | --- | --- | --- |
| inherently | 69 | CCOc1cc(C=O)ccc1OCCC=C(C)C [Example 34, 3-ethoxy-4-((4-methylpent-3-en-1-yl)oxy)benzaldehyde] | powdery, vanilla, chocolate | vanilla | 3.3 | 3.4 | 1.5 | Perceived Fragrance Intensity [4]: 31.1; Perceived Malodour Intensity [4]: 20.6 |
| inherently | 61 | CC/C=C\CCOc1ccc(C=O)cc1OCC [Example 1, (Z)-3-ethoxy-4-(hex-3-en-1-yloxy)benzaldehyde] | powdery (vanillin) creamy |  |  |  |  | Color of liquid detergent sample (visual inspection) [5]: optically identical to the unperfumed base; odor released from washed T-shirts ([2]; 0.2% in liquid detergent, 40° C. machine wash, after 1 and 4 days): strong vanilla, sweet, powdery and creamy fragrance; odor intensity, 1 day ([2]; Table 1, 0.2% in liquid detergent, 40° C. machine wash, line-dried fabric 1 day): 3; odor intensity, 4 days ([2]; Table 1, 0.2% in liquid detergent, 40° C. machine wash, line-dried fabric 4 days): 3.7; odor intensity, wet ([2]; Table 1, 0.2% in liquid detergent, 40° C. machine wash): 1.3; odour intensity, wet ([2]; liquid detergent washtest): 3.2; odour intensity, 1 day [2, 10]: 3.2; odour intensity, 4 days [2, 11]: 3.6; Perceived Fragrance Intensity [4]: 18.3; Perceived Malodour Intensity [4]: 29.5 |
| readily | 92 | CC/C=C\CCOc1ccc(C=O)cc1OC [Example 8, (Z)-4-(hex-3-en-1-yloxy)-3-methoxybenzaldehyde] | powdery (vanilla) slightly green |  |  |  |  |  |
|  |  | C=CCc1ccc(OCC/C=C\CC)c(OC)c1 [Example 10, (Z)-4-allyl-1-(hex-3-en-1-yloxy)-2-methoxybenzene] | slightly spicy | spicy, clove,; also recorded: gingerbread | 2.4 | 2.5 | 1.6 |  |
|  |  | C/C=C/c1ccc(OCC/C=C\CC)c(OC)c1 [Example 11, 1-(((Z)-hex-3-en-1-yl)oxy)-2-methoxy-4-((E)-prop-1-en-1-yl)benzene] | slightly spicy woody | spicy, vanilla | 1.9 | 3.0 | 2.0 |  |
|  |  | CCOc1cc(C=O)ccc1O [Ethylvanillin (A), 3-ethoxy-4-hydroxybenzaldehyde, reference compound] |  |  |  |  |  | Color of liquid detergent sample (visual inspection) [5]: strong brown-purple coloration |
| readily | 91 | CC(=O)CCc1ccc(OCCC=C(C)C)cc1 [Example 18, 4-(4-((4-methylpent-3-en-1-yl)oxy)phenyl)butan-2-one] | sweet fruity (raspberry ketone) |  |  |  |  |  |
|  |  | CCC=CCCOc1ccc(C=O)cc1OCC [Example 3, 3-ethoxy-4-(hex-3-en-1-yloxy)benzaldehyde] | powdery sweet (vanilla) |  |  |  |  | odour perceived on dry hair swatch [6]: Five out of seven experts perceived a vanilla note |
| inherently | 74 | CCOc1cc(C=O)ccc1OC1CC=CC1 [Example 20, 4-(cyclopent-3-en-1-yloxy)-3-ethoxybenzaldehyde] | vanilla (powdery, spicy, creamy) | vanilla, powdery | 3.0 | 3.7 |  |  |
|  |  | CC/C=C\CCOc1cc(C)c(C(=O)OC)c(O)c1C [Example 9, methyl (Z)-4-(hex-3-en-1-yloxy)-2-hydroxy-3,6-dimethylbenzoate] | powdery mossy (Evernyl) | oakmoss | 1.7 | 3.3 | 1.0 |  |
| readily | 82 | CC/C=C\CCOc1ccc(CCC(C)=O)cc1 [Example 6, (Z)-4-(4-(hex-3-en-1-yloxy)phenyl)butan-2-one] | raspberry | raspberry | 2.8 | 3.6 | 3.0 |  |
| inherently | 66 | CC=CCCOc1ccc(C=O)cc1OCC [Example 33, 3-ethoxy-4-(pent-3-en-1-yloxy)benzaldehyde] | mild, powdery, vanilla, peppery |  |  |  |  | odour intensity, wet ([2]; liquid detergent washtest): 1.1; odour intensity, 1 day [2, 10]: 3.2; odour intensity, 4 days [2, 11]: 3.8; Perceived Fragrance Intensity [4]: 22.3; Perceived Malodour Intensity [4]: 26.5 |
